According to PubChem BioAssay AID1259246 (Broad Institute, 2017):
Inconclusive results are not listed. The source made the active and inactive calls.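 Rule for the calls: active = valid dose-response fit whose half-maximal growth-inhibiting concentration is at or below a set limit above the top tested dose; inconclusive = flat fit with effect between 30 and 70%, or poor fit; inactive = half-maximal concentration above a set limit.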

Experiment: antibacterial activity against Clostridioides difficile – 10-point retest, dose response (AID 1259246)
Details: Clostridioides difficile clinical isolate growth, OD600, 24 h; at 60 µM (top of the series)
In the case of N#C[C@@H]1[C@@H](c2ccc(C#Cc3cccnc3)cc2)[C@@H](CO)N1C(=O)C1CCCCC1, the activity change, negative = inhibition is reported as 1.92% (inactive).
For O=C(C[C@@H]1C[C@H]2c3cc(NC(=O)C4CCC4)ccc3O[C@H]2[C@H](CO)O1)NCc1ccc(Cl)cc1, the activity change, negative = inhibition was -4.77% (inactive).
For C[C@H](CO)N1C[C@H](C)[C@@H](CN(C)S(=O)(=O)c2ccc(Cl)cc2)Oc2c(NC(=O)Nc3ccc(C(F)(F)F)cc3)cccc2C1=O, the activity change, negative = inhibition was 25% (inactive).
With C[C@H](CO)N1C[C@H](C)[C@@H](CN(C)S(C)(=O)=O)OCCCC[C@H](C)Oc2ccc(NC(=O)Nc3cccc4ccccc34)cc2C1=O the activity change, negative = inhibition was 9.57% (inactive).
With COc1ccccc1C#Cc1ccc([C@H]2[C@@H](CO)N(C(=O)C3CCCCC3)[C@H]2C#N)cc1 the activity change, negative = inhibition was 2.35% (inactive).
For Cc1noc(C)c1S(=O)(=O)Nc1ccc2c(c1)C(=O)N([C@@H](C)CO)C[C@H](C)[C@@H](CN(C)Cc1ccc3c(c1)OCO3)OCCCC[C@@H](C)O2, the activity change, negative = inhibition was 3.17% (inactive).
With C[C@H]1CN([C@@H](C)CO)S(=O)(=O)c2ccc(C#CC3CCCC3)cc2O[C@@H]1CN(C)Cc1cccnc1 the activity change, negative = inhibition was 7.15% (inactive).

Same assay, conditions: Clostridioides difficile clinical isolate growth, OD600, 24 h; at 110 µM (top of the series)
With O=C(C[C@@H]1CC[C@H]2[C@@H](COC[C@H](O)CN2S(=O)(=O)c2ccc(Cl)cc2)O1)NCc1ccc(Cl)c(Cl)c1 the activity change, negative = inhibition was 55.9% (inactive).

Same assay, conditions: Clostridioides difficile clinical isolate growth, OD600, 24 h; at 120 µM (top of the series)
In the case of C[C@H](CO)N1C[C@H](C)[C@@H](CN(C)C(=O)NC2CCCCC2)Oc2c(NC(=O)Nc3ccccc3)cccc2C1=O, the activity change, negative = inhibition is reported as 12.2% (inactive).
For COc1ccccc1C#Cc1ccc([C@H]2[C@@H](CO)N(C(=O)C3CC3)[C@H]2C#N)cc1, the activity change, negative = inhibition was 27.5% (inactive).
With C[C@@H]1CN([C@@H](C)CO)S(=O)(=O)c2ccc(C#CCN(C)C)cc2O[C@@H]1CN(C)Cc1ccc(F)cc1 the activity change, negative = inhibition was 4.72% (inactive).
For CNC[C@H]1Oc2cc(Br)ccc2S(=O)(=O)N([C@@H](C)CO)C[C@H]1C, the activity change, negative = inhibition was 5.27% (inactive).
For CO[C@@H]1CN(C)C(=O)c2ccc(NC(=O)c3nc4ccccc4s3)cc2OC[C@@H](C)N(Cc2cccnc2)C[C@H]1C, the activity change, negative = inhibition was 14.9% (inactive).
With C[C@@H]1CN([C@@H](C)CO)S(=O)(=O)c2ccc(C#CC3CCCCC3)cc2O[C@H]1CN(C)Cc1cccnc1 the activity change, negative = inhibition was 17.6% (inactive).
For O=C(N[C@H]1CC[C@H](CCNS(=O)(=O)c2ccc(Cl)cc2)O[C@H]1CO)c1ccccn1, the activity change, negative = inhibition was -10.3% (inactive).
With CO[C@H]1CN(C)C(=O)c2ccc(NC(=O)c3ccc(-c4ccccc4)cc3)cc2OC[C@H](C)NC[C@@H]1C the activity change, negative = inhibition was 5.28% (inactive).
In the case of CO[C@H]1CN(C)C(=O)c2ccc(NC(=O)c3ccc(-c4ccccc4)cc3)cc2OC[C@@H](C)NC[C@H]1C, the activity change, negative = inhibition is reported as 31.5% (inactive).
With COc1ccc(NC(=O)Nc2cccc3c2O[C@H](CN(C)C(=O)NC2CCCCC2)[C@@H](C)CN([C@H](C)CO)C3=O)cc1 the activity change, negative = inhibition was -0.118% (inactive).
For CO[C@@H]1CN(C)C(=O)c2ccc(NC(=O)c3ccc(-c4ccccc4)cc3)cc2OC[C@H](C)NC[C@H]1C, the activity change, negative = inhibition was 8.57% (inactive).
In the case of C[C@H](CO)N1C[C@H](C)[C@@H](CN(C)S(=O)(=O)c2ccc(Cl)cc2)Oc2c(NC(=O)Nc3ccc(C(F)(F)F)cc3)cccc2C1=O, the activity change, negative = inhibition is reported as 61.8% (inactive).
For CC(C)CC#Cc1ccc2c(c1)O[C@H](CN(C)Cc1ccccc1)[C@@H](C)CN([C@@H](C)CO)S2(=O)=O, the activity change, negative = inhibition was 35.7% (inactive).
In the case of O=C(C[C@H]1C[C@@H]2c3cc(NC(=O)NC4CCCC4)ccc3O[C@@H]2[C@@H](CO)O1)NCc1ccc(Cl)cc1, the activity change, negative = inhibition is reported as 8.51% (inactive).
In the case of COc1ccc(S(=O)(=O)N(C)C[C@@H]2Oc3ccc(NC(=O)CCCN(C)C)cc3CC(=O)N([C@@H](C)CO)C[C@H]2C)cc1, the activity change, negative = inhibition is reported as -5.12% (inactive).
In the case of C[C@H](CO)N1C[C@H](C)[C@H](CN(C)C(=O)NC2CCCCC2)Oc2c(NC(=O)Nc3ccc(C(F)(F)F)cc3)cccc2C1=O, the activity change, negative = inhibition is reported as 32.2% (inactive).
In the case of C[C@H](CO)N1C[C@H](C)[C@@H](CN(C)C(=O)Nc2ccccc2)OCCCC[C@H](C)Oc2ccc(NC(=O)Nc3cccc4ccccc34)cc2C1=O, the activity change, negative = inhibition is reported as 20.2% (inactive).
For C[C@H]1CN([C@@H](C)CO)S(=O)(=O)c2ccc(Br)cc2O[C@@H]1CN(C)Cc1cccnc1, the activity change, negative = inhibition was -0.003% (inactive).
In the case of C[C@H](CO)N1C[C@H](C)[C@@H](CN(C)Cc2ccc(Oc3ccccc3)cc2)Oc2ccc(NC(=O)C3CC3)cc2CC1=O, the activity change, negative = inhibition is reported as 33.9% (inactive).
For C[C@@H]1CN([C@H](C)CO)C(=O)Cc2cc(NC(=O)C3CC3)ccc2O[C@H]1CN(C)Cc1ccc(Oc2ccccc2)cc1, the activity change, negative = inhibition was 20.2% (inactive).
In the case of C[C@@H]1CN([C@H](C)CO)C(=O)c2cc(NC(=O)Nc3cccc4ccccc34)ccc2O[C@@H](C)CCCCO[C@H]1CN(C)S(C)(=O)=O, the activity change, negative = inhibition is reported as 1.6% (inactive).
In the case of C[C@@H]1CN([C@@H](C)CO)C(=O)Cc2cc(NC(=O)c3ccncc3)ccc2O[C@@H]1CN(C)S(=O)(=O)c1cn(C)cn1, the activity change, negative = inhibition is reported as 37.2% (inactive).
For C[C@@H]1CN([C@@H](C)CO)S(=O)(=O)c2ccc(/C=C/c3ccccc3)cc2O[C@H]1CN(C)C(=O)c1ccncc1, the activity change, negative = inhibition was 14.4% (inactive).
For COc1ccc(NC(=O)Nc2cccc3c2O[C@@H](CN(C)Cc2ccc(Oc4ccccc4)cc2)[C@@H](C)CN([C@H](C)CO)C3=O)cc1, the activity change, negative = inhibition was 38.3% (inactive).
With COc1ccc(C(=O)Nc2ccc3c(c2)C(=O)N(C)C[C@H](OC)[C@H](C)CN[C@@H](C)CO3)cc1 the activity change, negative = inhibition was 8.1% (inactive).
In the case of C[C@@H]1CN([C@H](C)CO)C(=O)c2cccc(NC(=O)Nc3ccccc3)c2O[C@H]1CN(C)Cc1ccc(Oc2ccccc2)cc1, the activity change, negative = inhibition is reported as 17.8% (inactive).
With CO[C@H]1CN(C)C(=O)c2cc(NC(=O)c3nc4ccccc4s3)ccc2OC[C@@H](C)N(Cc2ccncc2)C[C@H]1C the activity change, negative = inhibition was 5.99% (inactive).
For Cc1ccc(S(=O)(=O)N[C@H]2CC[C@@H](CCNS(=O)(=O)Cc3ccccc3)O[C@@H]2CO)cc1, the activity change, negative = inhibition was -4.91% (inactive).
In the case of N#C[C@H]1[C@H](c2ccc(C#Cc3ccccc3F)cc2)[C@@H](CO)N1C(=O)C1CCCCC1, the activity change, negative = inhibition is reported as 24.9% (inactive).
In the case of Cc1ccc(-c2ccc3c(c2)O[C@H](CN(C)Cc2cccnc2)[C@@H](C)CN([C@@H](C)CO)S3(=O)=O)cc1, the activity change, negative = inhibition is reported as 25.7% (inactive).
With C[C@@H]1CCCCO[C@H](CN(C)S(=O)(=O)c2ccc(F)cc2)[C@@H](C)CN([C@H](C)CO)C(=O)c2cc(NC(=O)Nc3cccc4ccccc34)ccc2O1 the activity change, negative = inhibition was 7.93% (inactive).
With CC(C)CC#Cc1ccc2c(c1)O[C@@H](CN(C)Cc1ccc3c(c1)OCO3)[C@H](C)CN([C@H](C)CO)S2(=O)=O the activity change, negative = inhibition was 17.8% (inactive).
For C[C@@H]1CN([C@@H](C)CO)S(=O)(=O)c2ccc(C#CC3CCCCC3)cc2O[C@@H]1CN(C)Cc1cccnc1, the activity change, negative = inhibition was 13.1% (inactive).
For C[C@@H]1CN([C@@H](C)CO)C(=O)c2ccccc2-c2ccccc2CO[C@@H]1CN(C)S(=O)(=O)c1ccc([N+](=O)[O-])cc1, the activity change, negative = inhibition was 35.2% (inactive).
In the case of C/C=C/c1ccc2c(c1)O[C@H](CN(C)CC1CCOCC1)[C@H](C)CN([C@@H](C)CO)S2(=O)=O, the activity change, negative = inhibition is reported as -1.64% (inactive).
For C[C@@H]1CCCCO[C@H](CN(C)C(=O)CCC(F)(F)F)[C@H](C)CN([C@@H](C)CO)C(=O)c2cc(NC(=O)c3ccncc3)ccc2O1, the activity change, negative = inhibition was 14.3% (inactive).
In the case of C[C@@H]1CCCCO[C@H](CN(C)C)[C@H](C)CN([C@H](C)CO)C(=O)c2cc(NC(=O)c3ccncc3)ccc2O1, the activity change, negative = inhibition is reported as 45.3% (inactive).
With C[C@@H]1CN([C@H](C)CO)C(=O)c2cccc(NC(=O)Nc3ccc(C(F)(F)F)cc3)c2O[C@H]1CN(C)C(=O)NC1CCCCC1 the activity change, negative = inhibition was 28.2% (inactive).
In the case of C[C@H](CO)N1C[C@H](C)[C@H](CN(C)Cc2ccc(-c3ccccc3)cc2)Oc2c(NC(=O)Nc3ccc4c(c3)OCO4)cccc2C1=O, the activity change, negative = inhibition is reported as 24.3% (inactive).
In the case of CO[C@@H]1CN(C)C(=O)c2cc(NC(=O)c3ccc(-c4ccccc4)cc3)ccc2OC[C@H](C)NC[C@H]1C, the activity change, negative = inhibition is reported as 9.68% (inactive).
For Cc1ccc(S(=O)(=O)N[C@@H]2CC[C@@H](CCNS(=O)(=O)Cc3ccccc3)O[C@H]2CO)cc1, the activity change, negative = inhibition was -1.85% (inactive).
In the case of C[C@H]1CN([C@@H](C)CO)C(=O)c2cccc(NC(=O)Nc3ccccc3)c2O[C@@H]1CN(C)Cc1ccc(Oc2ccccc2)cc1, the activity change, negative = inhibition is reported as 27.9% (inactive).
For O=C(C[C@H]1C[C@H]2c3cc(NS(=O)(=O)c4ccc(F)cc4)ccc3O[C@H]2[C@H](CO)O1)NCc1ccc(-c2ccccc2)cc1, the activity change, negative = inhibition was 17.8% (inactive).
With C[C@@H]1CN([C@@H](C)CO)S(=O)(=O)c2ccc(C#CCN(C)C)cc2O[C@@H]1CN(C)Cc1ccc2c(c1)OCO2 the activity change, negative = inhibition was 2.58% (inactive).

Same assay, conditions: Clostridioides difficile clinical isolate growth, OD600, 24 h; at 135 µM (top of the series)
For C[C@@H]1CN([C@@H](C)CO)C(=O)Cc2cc(NS(C)(=O)=O)ccc2O[C@@H]1CN(C)Cc1ccc(-c2ccccc2)cc1, the activity change, negative = inhibition was 16.9% (inactive).
For O=C(C[C@H]1C[C@H]2c3cc(NC(=O)Nc4ccc(F)cc4)ccc3O[C@H]2[C@@H](CO)O1)NC1CCCCC1, the activity change, negative = inhibition was -1.5% (inactive).
For C[C@H](CO)N1C[C@H](C)[C@H](CN(C)Cc2ccc(Oc3ccccc3)cc2)Oc2ccc(NC(=O)CCCN(C)C)cc2CC1=O, the activity change, negative = inhibition was 34.3% (inactive).
In the case of CO[C@H]1CN(C)C(=O)c2cc(NS(=O)(=O)c3ccc(-c4ccccc4)cc3)ccc2OC[C@H](C)NC[C@H]1C, the activity change, negative = inhibition is reported as 10.6% (inactive).
For C[C@@H]1CN([C@@H](C)CO)C(=O)Cc2cc(NC(=O)Nc3ccccc3)ccc2O[C@@H]1CN(C)Cc1ccc(-c2ccccc2)cc1, the activity change, negative = inhibition was 23.5% (inactive).
For C[C@@H]1CN([C@@H](C)CO)C(=O)Cc2cc(NC(=O)CCCN(C)C)ccc2O[C@H]1CN(C)S(C)(=O)=O, the activity change, negative = inhibition was -4.68% (inactive).
With O=C(C[C@@H]1C[C@H]2c3cc(NC(=O)C4CCC4)ccc3O[C@H]2[C@@H](CO)O1)NCc1ccc(Cl)cc1 the activity change, negative = inhibition was 6.13% (inactive).
